Experimental data taken from patent EP2106791A1, “Glutamine or glutamine-containing dipeptide in a specific dosage for the treatment of inflammation” (Biotempt B.V., priority 2008, dated 2009).
Residues, ends and D or L forms follow the SMILES beside them.

Tests used:
[1] = test system: mouse renal ischemia reperfusion; assay: Mice renal failure test (mouse renal ischemia reperfusion), mortality; format: in vivo; settings: score = animals died - animals in group
Protocol: Dipeptides are tested and compared with PBS (control) in a double blind animal study for a dipeptide's relative ability to aid recovery in a mouse renal ischemia reperfusion or mouse renal failure test. Under inhalation anesthesia, the left kidney with its artery and vein is isolated and occluded for 25 minutes using a microvascular clamp. During surgery, animals are placed on a heating path to maintain body temperature at 37°C. Five minutes before placing the clamp, and 5 minutes before releasing the clamp, dipeptide, dissolved in 0.1 mL of sterile saline, is administered intravenously. After reperfusion of the left kidney the right kidney is removed. Kidney function is assessed by measuring blood urea nitrogen before clamping, and at 2, 24, and 72 hours after reperfusion, by determining mRNA levels for cytokine expression, and such.
In short, in this test, the mice are anesthetized, and one kidney from each mouse is removed. The other kidney is tied off for 25 minutes, and the ischemia levels in the kidney are allowed to increase. Both before and/or after tying off, GLN-containing dipeptide is administered to 8 to 10 different mice per group (dosages vary per group from for example 0.7, 3, 7, 30 and 70 mg dipeptide / kg body mass intravenously). The mortality of the mice is determined for each oligopeptide as well as for example the BUN or creatinine concentration at two hours, 24 hours and 72 hours. Two dipeptides AQ and LQ are for example tested in a dose-response manner in the mice renal failure test. Dipeptides are tested at dosages of 0.7, 3, 7, 30 and 70 mg/kg body weight given intravenously.

TNF-alpha = assay: Rat hemorrhagic shock study, liver mRNA by reverse transcription-polymerase chain reaction; format: in vivo, Rats; settings: AQ intravenously 0.7 to 70 mg/kg during resuscitation; liver samples 30 minutes after completion of resuscitation
Protocol: (§1) Methods: Rats are randomly assigned to groups. Under isoflurane anesthesia, the femoral artery and vein are cannulated. Hemorrhagic shock is induced by withdrawing blood through the arterial cannula until the mean arterial pressure (MAP) is 25-30 mm Hg and maintained at the level for 30 minutes with further withdrawals. Resuscitation is carried out by giving 21 mL/kg Ringer's lactate (LR) with or without the administration of AQ (intravenously at ranges from 0.7 to 70 mg/kg) and returning the shed blood. Controls are normal (anesthesia only), sham (surgical preparation), and shock (preparation and shock). Rats (n = 80, 10 per group) are killed 30 minutes after completion of resuscitation. Liver samples are collected, and total RNA is isolated for reverse transcription-polymerase chain reaction analysis of mRNA (TNF-a). […] Increased expression of liver mRNA for TNF-alpha is seen after hemorrhagic shock and resuscitation.

Hemorrhagic shock = assay: Rat hemorrhagic shock study, recovery of mean arterial pressure; format: in vivo, Rats; settings: AQ intravenously 0.7 to 70 mg/kg with Ringer's lactate during resuscitation; compared with the LR group
Protocol: as §1

| Structure (SMILES) | Mortality in mice renal failure experiment 24h ([1]; 0.7 mg/kg intravenously) | Mortality in mice renal failure experiment 72h ([1]; 0.7 mg/kg intravenously) | Mortality in mice renal failure experiment 24h ([1]; 3.0 mg/kg intravenously) | Mortality in mice renal failure experiment 72h ([1]; 3.0 mg/kg intravenously) | Mortality in mice renal failure experiment 24h ([1]; 7.0 mg/kg intravenously) | Mortality in mice renal failure experiment 72h ([1]; 7.0 mg/kg intravenously) | Mortality in mice renal failure experiment 24h ([1]; 30.0 mg/kg intravenously) | Mortality in mice renal failure experiment 72h ([1]; 30.0 mg/kg intravenously) | Mortality in mice renal failure experiment 24h ([1]; 70.0 mg/kg intravenously) | Mortality in mice renal failure experiment 72h ([1]; 70.0 mg/kg intravenously) | expression of liver mRNA for TNF-alpha (TNF-alpha) | MAP recovery (Hemorrhagic shock) |
| --- | --- | --- | --- | --- | --- | --- | --- | --- | --- | --- | --- | --- |
| C[C@H](N)C(=O)N[C@@H](CCC(N)=O)C(=O)O [AQ, alanyl-glutamine] (H-Ala-Gln-OH) | 0-9 | 2-9 | 0-10 | 1-9 | 0-10 | 0-9 | 0-8 | 1-10 | 0-9 | 1-9 | reduces mRNA expression for TNF-alpha | recovers more quickly |
| CC(C)C[C@H](N)C(=O)N[C@@H](CCC(N)=O)C(=O)O [LQ, leucyl-glutamine] (H-Leu-Gln-OH) | 0-9 | 2-9 | 0-10 | 1-9 | 1-10 | 1-10 | 0-10 | 0-9 | 0-8 | 3-9 |  |  |
